# Results: US11345713B2, “Compounds as modulators of TLR2 signaling” (Neuropore Therapies, inc., priority 2018, dated 2022)
# Legend:
# [1] = biological target: T1, human TLR2 (Pam3CSK4, TLR1/2 agonist) in HEK-Blue hTLR2 cells (Homo sapiens, UniProt O60603); test: HEK-Blue hTLR2 antagonism assay (SEAP reporter) with Pam3CSK4 as agonist; type: cell-based; conditions: 2 h compound pre-incubation, approx. 3×EC50 Pam3CSK4, 18 h, SEAP OD 655 nm, background subtracted
# T1 construct: host or cells: HEK-Blue hTLR2 (HEK-293)
# Experimental: (§1) Synthetic diacylated lipoprotein (Pam2CSK4, TLR2/6 agonist) and synthetic triacylated lipoprotein (Pam3CSK4, TLR1/2 agonist) were obtained from InvivoGen and were dissolved in endotoxin-free water to a concentration 1 mg/mL, vortexed until complete solubilization, and stored in aliquots at −20° C. Prior to addition to cells, an aliquot of the dissolved ligand was vortexed shortly and then was diluted in medium to 25 ng/mL Pam2CSK4 or 1000 ng/mL Pam3CSK4. The EC50 of the agonists for each assay run was determined by using 3-fold dilutions of each agonist from the following starting concentrations: 5 ng/mL for Pam2CSK4, and 200 ng/mL for Pam3CSK4.
# (§2) Test compounds were solubilized fresh to 10-20 mM stocks in DMSO and sonicated for 5-10 minutes in a water bath sonicator. Serial dilutions were prepared in DMSO, and then diluted in medium. The final concentration of DMSO used in the assay was 1%.
# (§3) HEK-Blue hTLR2 reporter cells (InvivoGen) are HEK-293 cells stably expressing both the human TLR2 gene and a secreted embryonic alkaline phosphatase (SEAP) reporter construct downstream of NFκB promotor sites. HEK-Blue hTLR2 reporters were cultured according to manufacturer's protocol using Dulbecco's Modified Eagle Medium (DMEM; Gibco) containing 1× GlutaMax (Gibco), 10% heat-inactivated Fetal Bovine Serum (Gibco), Pen-Strep (50 U/mL penicillin, 50 μg/mL streptomycin, Gibco), 100 μg/mL Normocin (InvivoGen), and the selective antibiotic, 1× HEK-Blue Selection (InvivoGen). Quanti-Blue reagent (InvivoGen) for detection and quantification of secreted alkaline phosphatase was dissolved in 100 mL of endotoxin-free water, warmed to 37° C. for 30 minutes and then filtered using a 0.2 μm membrane.
# (§4) On day 1, 50 μL of each test compound dilution in duplicates or a vehicle control was added to each well of a 96-well plate followed by addition of 150 μL of HEK-Blue hTLR2 cell suspension (1×10^5 cells/well) and incubated at 37° C./5% CO2 for 2 h. Next, 50 μL of an approximate 3×EC50 concentration of each agonist (Pam2CSK4 or Pam3CSK4) was added to the wells containing test compounds or the vehicle control. The plates were then incubated at 37° C./5% CO2 for 18 h. For each assay run, non-treated HEK-Blue hTLR2 cells were treated with serial dilutions of agonists to determine EC50 values for the respective run.
# (§5) On day 2, secreted alkaline phosphatase (SEAP) activity was detected in cell culture supernatants. In brief, 20 μL was collected from each well and transferred to a 96-well plate. Next, 200 μL of Quanti-Blue detection reagent was added to each well. Plates were incubated at room temperature for 15 min and SEAP activity was assessed by spectrophotometer OD reading at 655 nm. […] The activities of the compounds against Pam2CSK4 and Pam3CSK4 are presented as IC50 values for the response from cells treated with agonists with the background signal subtracted.
# [2] = biological target: T2, human TLR2 (Pam2CSK4, TLR2/6 agonist) in HEK-Blue hTLR2 cells (Homo sapiens, UniProt O60603); test: HEK-Blue hTLR2 antagonism assay (SEAP reporter) with Pam2CSK4 as agonist; type: cell-based; conditions: 2 h compound pre-incubation, approx. 3×EC50 Pam2CSK4, 18 h, SEAP OD 655 nm, background subtracted
# T2 construct: host or cells: HEK-Blue hTLR2 (HEK-293)
# Experimental: as §1, §2, §3, §4, §5
# T2 sequence (O60603 19-784 limits assumed): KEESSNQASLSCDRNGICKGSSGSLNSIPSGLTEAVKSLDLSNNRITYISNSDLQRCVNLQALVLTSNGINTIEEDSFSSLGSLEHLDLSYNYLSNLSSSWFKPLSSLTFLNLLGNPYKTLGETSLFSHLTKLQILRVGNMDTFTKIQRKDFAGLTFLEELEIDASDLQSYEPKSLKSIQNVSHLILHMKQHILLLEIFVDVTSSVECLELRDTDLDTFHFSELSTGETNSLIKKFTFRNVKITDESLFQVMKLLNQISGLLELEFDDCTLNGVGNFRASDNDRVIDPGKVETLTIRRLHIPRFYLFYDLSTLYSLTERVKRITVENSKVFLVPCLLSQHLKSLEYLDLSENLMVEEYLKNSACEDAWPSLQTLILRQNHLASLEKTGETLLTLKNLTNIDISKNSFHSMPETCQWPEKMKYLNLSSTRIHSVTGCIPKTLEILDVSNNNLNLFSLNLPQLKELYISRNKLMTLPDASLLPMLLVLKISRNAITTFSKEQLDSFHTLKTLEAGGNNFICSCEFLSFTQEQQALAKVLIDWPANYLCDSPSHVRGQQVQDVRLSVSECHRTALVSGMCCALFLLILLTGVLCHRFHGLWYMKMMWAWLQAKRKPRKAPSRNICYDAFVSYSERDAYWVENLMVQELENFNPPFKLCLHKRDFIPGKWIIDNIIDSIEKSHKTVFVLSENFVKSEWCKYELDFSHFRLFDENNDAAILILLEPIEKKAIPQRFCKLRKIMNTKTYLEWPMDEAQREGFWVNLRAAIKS
# T1 sequence (O60603 19-784 limits assumed): as above
Structure (SMILES),IC50 [1],IC50 [2]
"COc1cc(-c2cc3c(s2)CCN(C(=O)OC(C)(C)C)C3)cc(C=O)c1O [compound 12, tert-butyl 2-(3-formyl-4-hydroxy-5-methoxyphenyl)-6,7-dihydrothieno[3,2-c]pyridine-5(4H)-carboxylate]",1.3 µM,1.4 µM
"COc1cc(/C=C/c2cccc(N3CCOCC3)c2)cc(C=O)c1O [compound 44, (E)-2-hydroxy-3-methoxy-5-(3-morpholinostyryl)benzaldehyde]",3.2 µM,3 µM
"COc1cc(/C=C/c2ccc(N3CCCC3)cc2)cc(C=O)c1O [compound 48, (E)-2-hydroxy-3-methoxy-5-(4-(pyrrolidin-1-yl)styryl)benzaldehyde]",0.6 µM,1 µM
"COc1ccc(/C=C/c2cc(C=O)c(O)c(OC)c2)cc1 [compound 1, (E)-2-hydroxy-3-methoxy-5-(4-methoxystyryl)benzaldehyde]",1.7 µM,3.2 µM
"CN1CCN(/N=C/c2cc(/C=C/c3ccc(N4CCCC4)cc3)cc(F)c2O)CC1 [compound 76, 2-fluoro-6-((E)-((4-methylpiperazin-1-yl)imino)methyl)-4-((E)-4-(pyrrolidin-1-yl)styryl)phenol]",0.5 µM,0.4 µM
"COc1cc(-c2cc3c(s2)CCN(C(=O)C2CC2)C3)cc(C=O)c1O [compound 14, 5-(5-(cyclopropanecarbonyl)-4,5,6,7-tetrahydrothieno[3,2-c]pyridin-2-yl)-2-hydroxy-3-methoxybenzaldehyde]",4.2 µM,5.7 µM
"COc1cc(/C=C/C(=O)N2CCOCC2)cc(C=O)c1O [compound 35, (E)-2-hydroxy-3-methoxy-5-(3-morpholino-3-oxoprop-1-en-1-yl)benzaldehyde]",62.6 µM,68.5 µM
"COc1cc(-c2cc3c(s2)CCN(CCF)C3)cc(C=O)c1O [compound 16, 5-(5-(2-fluoroethyl)-4,5,6,7-tetrahydrothieno[3,2-c]pyridin-2-yl)-2-hydroxy-3-methoxybenzaldehyde]",6.9 µM,5.9 µM
"Cc1ccc(/C=C/c2ccc(O)c(C=O)c2)cn1 [compound 21, (E)-2-hydroxy-5-(2-(6-methylpyridin-3-yl)vinyl)benzaldehyde]",57.3 µM,40 µM
"O=Cc1c(O)cc(/C=C/c2ccc(N3CCCC3)cc2)cc1F [compound 53, (E)-2-fluoro-6-hydroxy-4-(4-(pyrrolidin-1-yl)styryl)benzaldehyde]",1.5 µM,1.3 µM
"O=Cc1cc(/C=C/c2ccc(N3CCOCC3)cc2)cc(F)c1O [compound 42, (E)-3-fluoro-2-hydroxy-5-(4-morpholinostyryl)benzaldehyde]",4.5 µM,3.4 µM
"COc1cc(-c2cc3c(s2)CCN(C(C)C)C3)cc(C=O)c1O [compound 20, 2-hydroxy-5-(5-isopropyl-4,5,6,7-tetrahydrothieno[3,2-c]pyridin-2-yl)-3-methoxybenzaldehyde]",10 µM,11.2 µM
"COc1cc(/C=C/c2ccc3c(c2)CCCO3)cc(C=O)c1O [compound 67, (E)-5-(2-(chroman-6-yl)vinyl)-2-hydroxy-3-methoxybenzaldehyde]",1.2 µM,1.7 µM
"O=Cc1c(O)cc(/C=C/c2ccc(N3CCCCC3)cc2)cc1F [compound 71, (E)-2-fluoro-6-hydroxy-4-(4-(piperidin-1-yl)styryl)benzaldehyde]",2.5 µM,13.7 µM
"O=Cc1cc(/C=C/c2cccc(N3CCOCC3)c2)cc(F)c1O [compound 45, (E)-3-fluoro-2-hydroxy-5-(3-morpholinostyryl)benzaldehyde]",6.7 µM,5 µM

# Now from value to molecule:
IC50 [1],IC50 [2],Structure (SMILES)
11.5 µM,11.8 µM,"COc1cc(/C=C/c2ccccn2)cc(C=O)c1O [compound 23, (E)-2-hydroxy-3-methoxy-5-(2-(pyridin-2-yl)vinyl)benzaldehyde]"
0.6 µM,0.7 µM,"COc1cc(/C=C/c2ccc(N3CCCCC3)cc2)cc(C=O)c1O [compound 69, (E)-2-hydroxy-3-methoxy-5-(4-(piperidin-1-yl)styryl)benzaldehyde]"
3.1 µM,4.8 µM,"COc1cc(C=Cc2ccc(Cl)cc2)cc(C=O)c1O [compound 3, 5-(4-chlorostyryl)-2-hydroxy-3-methoxybenzaldehyde]"
3.3 µM,3.9 µM,"O=Cc1cc(/C=C/c2ccc(N3CCCC3)cn2)cc(F)c1O [compound 87, (E)-3-fluoro-2-hydroxy-5-(2-(5-(pyrrolidin-1-yl)pyridin-2-yl)vinyl)benzaldehyde]"
> 100 µM,> 100 µM,"COc1ccc(/C=C/c2cc(OC)c(O)c(C(C)=O)c2)cc1 [compound 9, (E)-1-(2-hydroxy-3-methoxy-5-(4-methoxystyryl)phenyl)ethan-1-one]"
> 100 µM,> 100 µM,"O=Cc1cc(/C=C/c2ccccn2)ccc1O [compound 24, (E)-2-hydroxy-5-(2-(pyridin-2-yl)vinyl)benzaldehyde]"
0.6 µM,1.5 µM,"CCN(CC)c1ccc(/C=C/c2cc(C=O)c(O)c(OC)c2)cc1 [compound 63, (E)-5-(4-(diethylamino)styryl)-2-hydroxy-3-methoxybenzaldehyde]"
5.5 µM,6.3 µM,"COc1cc(/C=C/c2ccc(C(F)(F)F)cc2)cc(C=O)c1O [compound 8, (E)-2-hydroxy-3-methoxy-5-(4-(trifluoromethyl)styryl)benzaldehyde]"
9.3 µM,7.4 µM,"COc1cc(/C=C/c2ccc(C)nc2)cc(C=O)c1O [compound 26, (E)-2-hydroxy-3-methoxy-5-(2-(6-methylpyridin-3-yl)vinyl)benzaldehyde]"
12.6 µM,14.7 µM,"COc1cc(-c2cc3c(s2)CCN(C(C)=O)C3)cc(C=O)c1O [compound 15, 5-(5-acetyl-4,5,6,7-tetrahydrothieno[3,2-c]pyridin-2-yl)-2-hydroxy-3-methoxybenzaldehyde]"
11.2 µM,8.2 µM,"CCN1CCN(c2ccc(/C=C/c3cc(O)c(C=O)c(F)c3)cc2)CC1 [compound 72, (E)-4-(4-(4-ethylpiperazin-1-yl)styryl)-2-fluoro-6-hydroxybenzaldehyde]"
38.1 µM,26.7 µM,"CC(=O)N1CCc2sc(-c3cc(F)c(O)c(C=O)c3)cc2C1 [compound 19, 5-(5-acetyl-4,5,6,7-tetrahydrothieno[3,2-c]pyridin-2-yl)-3-fluoro-2-hydroxybenzaldehyde]"
6.3 µM,17.8 µM,"COc1ccc(/C=C/c2cc(C=O)c(O)cc2F)cc1 [compound 22, (E)-4-fluoro-2-hydroxy-5-(4-methoxystyryl)benzaldehyde]"
2.1 µM,2.1 µM,"Oc1c(F)cc(/C=C/c2ccc(N3CCCC3)cc2)cc1/C=N/Oc1ccccc1 [compound 82, (E)-3-fluoro-2-hydroxy-5-((E)-4-(pyrrolidin-1-yl)styryl)benzaldehyde O-phenyl oxime]"
7.5 µM,9.7 µM,"COc1cc(/C=C/c2cc(C=O)c(O)c(OC)c2)ccc1O [compound 34, (E)-2-hydroxy-5-(4-hydroxy-3-methoxystyryl)-3-methoxybenzaldehyde]"
1.7 µM,1.8 µM,"COc1cc(/C=C/c2ccc(-n3cccn3)cc2)cc(C=O)c1O [compound 56, (E)-5-(4-(1H-pyrazol-1-yl)styryl)-2-hydroxy-3-methoxybenzaldehyde]"
1 µM,1.4 µM,"COc1cc(/C=C/c2cccc(N3CCCC3)c2)cc(C=O)c1O [compound 46, (E)-2-hydroxy-3-methoxy-5-(3-(pyrrolidin-1-yl)styryl)benzaldehyde]"
29.4 µM,19.5 µM,"O=Cc1cc(/C=C/c2ccccn2)cc(F)c1O [compound 28, (E)-3-fluoro-2-hydroxy-5-(2-(pyridin-2-yl)vinyl)benzaldehyde]"
